# What was measured:
# [1] = test system: 4T1 cells; assay: Confocal microscopy of fluorescence emission in control and Palbociclib-induced senescent cells; format: cell-based, mouse
# Experimental: Mouse mammary carcinoma 4T1 cells were cultured in DMEM supplemented with 10 % FBS and incubated in 20 % O2 and 5 % CO2 at 37 °C. The cells were incubated with 5 µM of Palbociclib in DMEM for one week to induce the senescence process. Subsequently, the cells were seeded in a flat clear-bottom 96-well plate with a density of 6000 cells for senescent cells and 4000 in the control cells (without prior treatment with Palbociclib). After 24 hours, the cells were incubated with different concentrations of probe Cy7-Gal and its fluorophore (Cy7), with confocal microscopy images being acquired after 30 min of incubation. A more than 10-fold increase in fluorescence emission is observed between senescent cells treated with probe Cy7-Gal and untreated senescent cells (self-fluorescence signal).
# [2] = test system: 4T1 cells; assay: Viability assay (CellTiter-GLO Luminescent Cell Viability Assay) in control and senescent cells; format: cell-based, mouse; conditions: 4T1 control and senescent cells, different concentrations, 24 h of incubation
# Experimental: Mouse mammary carcinoma 4T1 cells were cultured in DMEM supplemented with 10 % FBS and incubated in 20 % O2 and 5 % CO2 at 37 °C. To obtain cellular senescence, the cells were incubated with 5 µM of Palbociclib in DMEM for one week. Subsequently, the cells were seeded in a flat clear-bottom 96-well plate with a density of 6000 cells for senescent cells and 4000 in the control cells. After 24 h, the cells were treated with different concentrations of probe Cy7-Gal and its fluorophore (Cy7). Viability measurements were obtained after 24 h of incubation using CellTiter-GLO Luminescent Cell Viability Assay as a developer.
# [3] = test system: 4T1 mammary tumours; assay: In vivo detection of senescence through urine and bladder fluorescence (IVIS and fluorescence spectroscopy) in mice bearing mammary tumours; parameters: species or system female BALB/cByJ mice
# Experimental: Urine fluorescence measurements were carried out by taking 5 µl of urine and diluting it in distilled water to 100 µl. The samples were obtained by exciting at 535 nm and collecting the absorption maximum at 566 nm.
# The Palbociclib was administered through an oral probe daily for 7 days at different concentrations of 10 mg / kg, 50 mg / kg and 100 mg / kg dissolved in 50 mM sodium lactate at pH 5 in order to induce senescence. […] The mice were monitored for 15 minutes post-injection of the probe in the IVIS® equipment following the accumulation of fluorophore Cy7 in the bladder after the hydrolysis of probe Cy7-Gal in the presence of senescent cells.
# [4] = test system: 4T1 cell tumours; assay: Ex vivo IVIS fluorescence of extracted tumours and organs; format: in vivo, female BALB/cByJ mice; conditions: after sacrifice, different Palbociclib groups (FIG. 8d)
# Experimental: The mice were kept in the Prince Phillip Research Centre (Centro de Investigación Príncipe Felipe (CIPF)) following the recommendations of the Federation of European Laboratory Animal Science Associations (FELASA). All the processes applied on the animals were approved by the Technical Research Committee for Animal Welfare (Comité Técnico de Investigación para el bienestar de los animals, CElyBA). 4T1 mammary tumours were generated using 4T1 cells: The cells were cultured in DMEM supplemented with 10 % FBS and penicillin-streptomycin. To generate the formation of mammary tumours, the cells were trypsinised and counted with a LUNA ™ automated cell counter and injected by subcutaneous route into the left mammary of 28- to 34-week-old female BALB/CBY mice at a concentration of […] in a volume of 100 µl. The volume of the tumour was measured every two days with a gauge and calculated as V = (a x b2) / 2, wherein a is the longest and b is the shortest of two perpendicular diameters. […] The mice were monitored for 15 minutes post-injection of the probe in the IVIS® equipment following the accumulation of fluorophore Cy7 in the bladder after the hydrolysis of probe Cy7-Gal in the presence of senescent cells. […] The measurement of fluorescence in organs and tumours for the different groups of mice was performed with the IVIS technique.
structure (smiles),measurement,setting,value
CC(=O)OC[C@H]1O[C@@H](Oc2ccc(/C=C/C3=[N+](CCCCS(=O)(=O)[O-])c4ccccc4C3(C)C)cc2/C=C/C2=[N+](CCCCS(=O)(=O)[O-])c3ccccc3C2(C)C)[C@H](OC(C)=O)[C@@H](OC(C)=O)[C@H]1OC(C)=O [Cy7-Gal],increase in fluorescence emission between senescent cells and control cells,"[1]; both incubated in the presence of probe, compared with the more than 10-fold increase over untreated senescent cells, 30 min of incubation",slightly higher
same,increase in fluorescence emission,"[1]; senescent 4T1 cells (5 µM Palbociclib, one week) treated with probe vs untreated senescent cells (self-fluorescence signal), 30 min of incubation",more than 10 fold
same,selectivity of the probe for detecting senescent cells,[1]; senescent vs control 4T1 cells,high selectivity
same,toxicity (viability),[2],minimum toxicity
same,expulsion from the organism through urine,"[3]; female mice urinated after coming out from under anaesthesia, monitored 15 minutes post-injection",expelled from the organism
same,fluorescence emission of the urine samples vs degree of cellular senescence,"[3]; mice with 4T1 tumours given Palbociclib 10, 50 or 100 mg/kg orally for 7 days, then probe 23.3 mg/ml in 100 µl, IVIS and fluorescence spectroscopy",correspondence between the fluorescence emission of the urine samples and the degree of cellular senescence
same,fluorescence signal in tumours and most representative organs (IVIS),[4],"a signal is only observed in senescent tumours, and no signal is observed in the different organs"

# From patent EP4043435A1, “COMPOUND FOR DETECTING SENESCENT CELLS AND USE THEREOF” (Universitat Politècnica de València, priority 2019, dated 2021)
